Assay results reported in US20250241917A1, “SMALL MOLECULE ENHANCERS OF ANTISENSE OLIGO ACTIVITY” (Oregon State University, priority 2022, published 2025).

Columns and labels:
[1] = in vivo, po; cited from earlier work
[2] = system: HeLa pLuc/705 cells; assay: HeLa pLuc/705 assay (luciferase splice-correction readout of ASO activity with enhancer co-treatment); format: cell-based; conditions: for increase in 2′-OMe PS activity: 2′-OMe PS fixed at 5 μM; for increase in PPMO activity: PPMO fixed at 5 μM; for enhancing performance in screen of Selleck Chemicals FDA-approved drug library: primary screen 10 μM, secondary screen 0.1-20 μM; for enhancer concentration range that significantly enhances ASO activity on co-treatment of cells: cell culture co-treatment with ASO or macromolecule; for increase in 2′-MOE PS activity: 2′-MOE PS fixed at 2.5 μM; for enhancement of unmodified PMO activity: varied PMO concentration, enhancer fixed (febuxostat 2.5 μM; lonafarnib 250 nM), manual format (96 wells)
Excerpt: The Hela pLuc/705 assay provides a positive readout of ASO's splice-modifying activity. Because messenger RNA (mRNA) splicing occurs in the cell's nucleus, the assay's output is indicative of the effectiveness of delivery of splice-modifying oligomers into the nucleus, which necessarily implies effective cytosolic delivery. The assay utilizes a genetically modified HeLa cell line that has been stably transfected with a gene containing coding sequence for a reporter enzyme (luciferase) and a mutated intron inserted within the coding sequence. The mutated intron cannot be properly excised resulting in an in-frame stop codon in the luciferase coding sequence, which prevents expression of functional luciferase. Two conditions must be met to produce the functional enzyme. First, an ASO must enter the cell nucleus to block the mutated splice site, thus restoring normal splicing and read through of the reporter message. The result is mRNA encoding functional reporter protein. Second, but equally important, the cells must be viable to carry out RNA processing and translation so that reporter protein activity is produced.
Correction through successful nuclear delivery of a splice-modifying ASO restores luciferase expression, which is then quantified by measurement of cell lysate luminescence with addition of luciferin substrate. This assay is a standard measure of intracellular ASO delivery within the field.
The HeLa pLuc/705 assay was miniaturized in order to allow it to be performed in […] cell culture plates, enabling the assay to be adapted to the high-throughput screening setting. The aim was to screen small molecules, with an emphasis on FDA-approved drugs, for ability to enhance ASO splice-modifying activity, which would be indicated by an increase in luminescence relative to cells treated with the ASO alone. In order to validate the approach, a positive control molecule was utilized which was already known to increase ASO activity when used alongside the ASO. Initially, a peptide intended for use in cell culture was used. Subsequently, febuxostat was used as a positive control.
The first screened compounds were the compounds in the Selleck Chemicals FDA-approved drug library for enhancing activity. This library contains 1430 compounds. Library compounds were dispensed to 10 μM in the plate wells. […] These sixteen compounds were evaluated for enhancing performance over the concentration range 0.1-20 μM. This enabled validation of the primary screening results, as well as to evaluate relative performance of hits through observation of concentration-dependent activity. Hits were evaluated based on relative enhancing performance, and they were also qualitatively evaluated for suitability for future therapeutic use, considering the identity, indication and approval status of the compound.
HeLa pLuc/705 cells were seeded into 384-well plates ([…] well volume) and incubated for 24 hours. At 24 hours, DMSO solutions of OAEs were added to subconfluent cells using an HP D300 Digital Dispenser, followed by addition of a testing ASO or DMSO. Cells were incubated for 24 hours. At 24 hours treatment time, growth medium was removed from the cells and […] of a lysis buffer/luciferin solution was added to each well. Luminescence was measured using a BioTek plate reader 5 minutes following addition of the lysis buffer/luciferin solution. Background luminescence values (generated using OAE only/DMSO-matched controls) were subtracted from experimental values. These methods apply to the commonly employed format for the assay using the HP D300 Digital Dispenser, with slight variations used for the high-throughput and manual formats.

[3] = mice, intraperitoneal administration at 10 mg/kg; cited from earlier work
[4] = degrades to tizoxanide; cited from earlier work
[5] = varied ASO concentration, enhancer fixed (resveratrol 10 μM)

SMILES	increase in 2′-OMe PS activity ([2]; enhancer at 10 μM) [fold]	increase in PPMO activity ([2]; enhancer at 10 μM) [fold]	enhancing performance in screen of Selleck Chemicals FDA-approved drug library ([2]; PPMO)	enhancer concentration range that significantly enhances ASO activity on co-treatment of cells [2] [µM]	enhancement of unmodified PMO activity [2]	enhancement of PPMO activity in screen of NIH Clinical Collection ([2]; PPMO)	also measured
Oc1ccc(/C=C/c2cc(O)cc(O)c2)cc1 [resveratrol]	1.5	2.1	found to be an OAE	1 to 20	–	–	maximum plasma concentration [1]: 2.4 µM; enhancement of 2′-MOE PS activity ([2]; fixed ASO concentration, varied enhancer concentration): did not show enhancement; enhancement of 2′-MOE PS ASO activity [2, 5]: did show enhancement; enhancement of 2′-OMe PS ASO activity [2, 5]: failed to enhance activity
NC(=O)N1CCC(CC(=O)N2CCC([C@H]3c4ncc(Br)cc4CCc4cc(Cl)cc(Br)c43)CC2)CC1 [lonafarnib]	–	–	strong performers	0.1 to 20	found to enhance the activity	–	increase in 2′-MOE PS activity ([2]; enhancer at 250 nM): 2.1 fold; increase in 2′-OMe PS activity ([2]; enhancer at 250 nM): 3 fold; increase in PPMO activity ([2]; enhancer at 250 nM): 2.6 fold
Cc1nc(-c2ccc(OCC(C)C)c(C#N)c2)sc1C(=O)O [febuxostat]	6.4	7.9	strong performers	0.25 to 20	found to enhance the activity	–	increase in 2′-MOE PS activity ([2]; enhancer at 5 μM): 3 fold; result in screen of MicroSource Discovery Spectrum library ([2]; PPMO): strong hit
Nc1nc2ccc(Cl)cc2c2nc(-c3ccco3)nn12 [CGS-15943]	3.2	4	–	0.25 to 20	–	significant enhancement	adverse effects [3]: no reported adverse effects; increase in 2′-MOE PS activity ([2]; enhancer at 10 μM): 2.6 fold
CC(=O)Oc1ccccc1C(=O)Nc1ncc([N+](=O)[O-])s1 [nitazoxanide]	–	–	–	5 to 20	–	significant enhancement	degradation in human plasma [4]: degrade very rapidly
